Data reported in patent US7875601B2, “Cancer treatment with epothilones” (Novartis AG, priority 1998, dated 2011).
Marks after values point to notes of the source that are not given here.

Experiments:
[1] = system: human COLO 205 colon tumors; assay type: in vivo, female BALB/c nude mice; conditions: 75 mg/kg, day 32
Description: (§1) Female or male BALB/c nu/nu (nude) mice are kept under sterile conditions (10 to 12 mice per Type III cage) with free access to food and water. Mice weigh between 20 and 25 grams at the time of tumor implantation. Tumors are established by subcutaneous injection of cells (minimum 2×10^6 cells in 100 μl PBS or medium) in carrier mice (4-8 mice per cell line). The resulting tumors are serially passaged for a minimum of three consecutive transplantations prior to start of treatment. Tumor fragments (approx. 25 mg) are implanted s.c. into the left flank of animals with a 13-gauge trocar needle while the mice are exposed to Forene (Abbott, Switzerland) anesthesia.
(§2) Tumor growth and body weights are monitored once or twice weekly. All treatments are administered intravenously (i.v.) and are initiated when a mean tumor volume of approximately 100 to 250 mm^3 is attained, depending upon the tumor type. Tumor volumes are determined using the formula […] (see Cancer Chemother. Pharmacol. 24:148-154, [1989]). Treatments with epothilone B vary the dose and the frequency of administration. Comparator agents are administered according to previously determined optimal treatment regimens. In addition to presenting changes in tumor volumes over the course of treatment, antitumor activity is expressed as T/C % (mean increase of tumor volumes of treated animals divided by the mean increase of tumor volumes of control animals multiplied by 100). Tumor. regression (%) represents the smallest mean tumor volume compared to the mean tumor volume at the start of treatment, according to the formula Regression (%)=(1−Vend/Vstart)×100(Vend=final mean tumor volume, Vstart=mean tumor volume at the start of treatment. Any animals in which the tumor has reached a size exceeding approximately 1.5 to 2.5 cm^3 are sacrificed. Details can be found below.

[2] = system: human HCT-15 colon carcinoma; assay: Antitumor effect against s.c. transplanted HCT-15 tumors; assay type: in vivo, female BALB/c nude mice
Description: Human colorectal adenocarcinoma cell line HCT-15 (ATCC CCL 225) is from the American Type Culture Collection (Rockville, Md., USA), and the cells are cultivated in vitro as recommended by the supplier. HCT-15 is an epithelial-like cell line. (Cancer Res. 39: 1020-25 [1979]) that is multi-drug resistant by virtue of over-expression of P-glycoprotein (P-gp, gp170, MDR-1;Anticancer Res. 11: 1309-12 [1991]; J. Biol. Chem. 264: 18031-40 [1989]; Int. J. Cancer 1991; 49: 696-703 [1991]) and glutathione-dependent resistance mechanisms (Int. J. Cancer 1991; 49: 688-95 [1991]).
as §1, §2
Tumor volumes are used as the primary indicator of activity of antitumor agents used alone or in combination, and changes in body weights are measured as an indicator of treatment tolerability.

KB-8511 = KB-8511 vs KB-31; cited from earlier work
[3] = system: KB-8511 (Epidermoid, MDR); assay: Antiproliferative assay, KB-8511; assay type: cell-based, human; conditions: KB-8511 vs parental line
Description: The human epidermal (mouth) carcinoma cell line KB-8511 (a P-gp over-expressing cell line derived from the epidermoid (mouth) KB-31 carcinoma cell line) is obtained from Dr. R. M. Baker, Roswell Park Memorial Institute (Buffalo, N.Y., USA) (for description see Akiyama et al., Somat. Cell. Mol. Genetics 11, 117-126 (1985) and Fojo A., et al., Cancer Res. 45, 3002-3007 (1985)) and is cultured as previously described (Meyer, T., et al., Int. J. Cancer 43 851-856 (1989)).
Antiproliferative assays are performed as previously described (Int. J. Cancer 43, 851-6 (1989)). Briefly, cells are seeded at 1.5×10^3 cells/well into 96-well microtiter plates and incubated overnight. Compounds are added in serial dilutions on day 1. The plates are then incubated for an additional 2 to 5 days, allowing for at least one cell doubling (cell line dependent), after which the cells are fixed with 3.3% v/v glutaraldehyde, washed with water and stained with 0.05% w/v methylene blue. After washing, the dye is eluted with 3% v/v HCl and the optical density measured at 665 nm with a SpectraMax 340 (Bucherer, Basel, Switzerland). IC50 values are determined by a computerized system (SoftPro, Bucherer, Basel, Switzerland) using the formula (OD test−OD start)/(OD control−OD start)×100. IC50 is defined as the drug concentration which leads to 50% of cells per well compared to control cultures (100%) at the end of incubation period.

[4] = 75 mg/kg, i.v., on days 14 and 21
[5] = 75 mg/kg, i.v., on days 14 and 21, mean ± SEM

## O=c1[nH]cc(F)c(=O)[nH]1 [5-fluorouracil, reference compound]
[1]; i.v. every 7 days (days 14, 21, 28)
  T/C: 18%
[1]; i.v. every 7 days
  Regression: none
  Δ Tumor Volume (mm^3): 62 ± 12 mm^3
[2]; [4]
  Regression: none
  T/C: 88%
[2]; [5]
  % Body Weight Change: 9 ± 4%
  D Body Weight: 2.0 ± 0.7 g
  D Tumor Volume (mm^3): 1654 ± 824 mm^3
[2]; two 75 mg/kg administrations
  deaths: 50%

## COc1cc2c(c(OC)c1OC)-c1ccc(OC)c(=O)cc1[C@@H](NC(C)=O)CC2 [colchicine]
KB-8511
  relative resistance when compared with the KB-31 cells: ~40 fold

## CC(=O)O[C@H]1C(=O)[C@@]2(C)[C@H]([C@H](OC(=O)c3ccccc3)[C@]3(O)C[C@H](OC(=O)[C@H](O)[C@@H](NC(=O)c4ccccc4)c4ccccc4)C(C)=C1C3(C)C)[C@]1(OC(C)=O)CO[C@@H]1C[C@@H]2O [paclitaxel, reference compound]
[3]
  relative resistance, IC50 (resistant line)/IC50 (parental line): (343)^a
